Converted amounts (≈) assume the structure as drawn. Where two headings read alike, the source gives them in different places. Marks after values point to notes of the source that are not given here.

Experimental findings from patent publication EP0252380B1, “Antibiotic LL-E19020 alpha and beta” (AMERICAN CYANAMID COMPANY, priority 1986, dated 1988) are described below.

For assay [1], the system named is Mycoplasma gallisepticum "R". In words: Minimum inhibitory concentration assay for Mycoplasma gallisepticum (microdilution, Table VII). The note with it: Mycoplasmoides gallisepticum.
Assay [2] concerns Treponema hyodysenteriae. The assay is described as follows: Minimum inhibitory concentration by microdilution (Table VII). The assay is classed as cell-based. The note with it: Brachyspira hyodysenteriae, read-out: MIC.
Assay [3] relates to Treponema hyodysenteriae. In words: T. hyodysenteriae disk test (primary in vitro disk diffusion test). The note with it: Brachyspira hyodysenteriae.
Assay [4] can be described thus: Weight gain and feed efficiency of broiler chicks (Example 6, Table IX). It counts as in vivo, Peterson X Arbor Acres chicks. The note with it: 200 PPM in diet.
Assay [5] in a line: Weight gains and feed efficiency in broiler chicks treated with E19020 alpha (Table IX A). It counts as in vivo. The note with it: 200 PPM. On the procedure:
Five male and five female one day old Peterson X Arbor Acres chicks are allotted to starter battery cages by weight. Cages are randomized to treatment groups with seven replicates per treatment. […] The positive standard is penicillin at 200 ppm. Diets are prepared weekly.

The subject of assay [6] is In Vitro Rumen Fermentation. The assay is described as follows: Propionate enhancement activity during in vitro rumen fermentation. The note with it: for A:P: acetate/propionate ratio. It counts as cell-based, steer. On the procedure:
The drugs are dissolved or suspended (sonified if necessary) in a 0.1% Tween 20-ethanol-water vehicle and 25-50 ul is added to the incubation. The reaction is terminated with 6N HCl and centrifuged at 20,000 x g. Alliquots of the superinatant are analyzed for volatile fatty acid (VFA) content by gas-liquid chromatography.

The test system of assay [7] is Pasteurella multocida 31081B. In words: Pasteurella disk test (primary in vitro disk diffusion test). The note with it: Pasteurella multocida, 31081B, read-out: ZONE SIZE. In general terms: In agar diffusion tests the substance spreads into inoculated agar from a disc or well.
Assay [8] concerns Pasteurella haemolytica 30660. The description is as above. The assay is classed as cell-based. The note with it: Mannheimia haemolytica; disks soaked in 2.5 mg/ml solution; strain 30660.
[9] abbreviates: ATCC27164, strain B78 (ATCC 27164).
Setting [10] is: ATCC31212, strain B204 (ATCC 31212).

With `CC[C@H]1OC(=O)C[C@@H](O)[C@H](C)[C@@H](O[C@@H]2O[C@H](C)[C@@H](O[C@H]3C[C@@](C)(O)[C@@H](O)[C@H](C)O3)[C@H](N(C)C)[C@H]2O)[C@@H](CC=O)C[C@@H](C)C(=O)/C=C/C(C)=C/[C@@H]1CO[C@@H]1O[C@H](C)[C@@H](O)[C@@H](OC)[C@H]1OC` [TYLOSIN, reference compound], inhibition of growth in assay [1] (MIC) required 0.03 µg/mL (≈ 0.0327 µM).

Turning to `C=C[C@]1(C)C[C@@H](OC(=O)CSCCN(CC)CC)[C@]2(C)[C@H](C)CC[C@]3(CCC(=O)[C@H]32)[C@@H](C)[C@@H]1O` [TIAMULIN, reference compound], the minimum inhibitory concentration (MIC) with Treponema hyodysenteriae [2] (setting [9]) and with Treponema hyodysenteriae [2] (setting [10]) was 0.015 µg/mL (≈ 0.0304 µM) each time. In addition, the zone of inhibition at 2500 µg/mL with Treponema hyodysenteriae [3] (ATCC27164, read-out: ZONE SIZE) was 67 mm; in the assay on Treponema hyodysenteriae [3] (ATCC31212, read-out: ZONE SIZE), 70 mm.

As for `COC(=O)N/N=C/c1c[n+]([O-])c2ccccc2[n+]1[O-]` [CARBADOX, reference compound], the MIC (as a rule, the lowest concentration found to suppress growth) turned out to be 0.5 µg/mL (≈ 1.91 µM) with Treponema hyodysenteriae [2] (setting [9]) and 0.25 µg/mL (≈ 0.953 µM) in the assay on Treponema hyodysenteriae [2] (setting [10]).

For Penicillin [reference compound], in assay [4], the “Wg Gains And Feed Efficiency % Improvement Over Controls COMBINED” value amounted to 3.5%, the “Wg Gains And Feed Efficiency % Improvement Over Controls FEMALES” value is 4.2% and the “Wg Gains And Feed Efficiency % Improvement Over Controls MALES” value is on record as 2.4%. Besides, in assay [4] (control 1.41), the “Wg Gains And Feed Efficiency % Improvement Over Controls FEED/GAIN” value is given as 1.35**. In assay [5], the “FEED/GAIN % I[…] CONTROLS 0-3 WEEKS” value is 3.5%, the “FEED/GAIN % I[…] CONTROLS 0-7 WEEKS” value came out at 6.0%, the “WEIGHT GAIN % I[…] CONTROLS 0-3 WEEKS” value turned out to be 4.9% and the “WEIGHT GAIN % I[…] CONTROLS 0-7 WEEKS” value worked out at 3.4%. In assay [5] (control 1.43), the “FEED/GAIN 0-3 WEEKS” value was 1.38**. In addition, in assay [5] (control 1.99), the “FEED/GAIN 0-7 WEEKS” value is listed as 1.87**. Further, the “WEIGHT GAIN IN GRAMS 0-3 WEEKS” value in assay [5] (control 608) was 638* GRAMS. Further, in assay [5] (control 2145), the “WEIGHT GAIN IN GRAMS 0-7 WEEKS” value is 2217 GRAMS.

With AVOPARCIN [reference compound], the “A:P” value in assay [6] (Table X, 1.0 PPM, control 2.65) is given as 2.38; in assay [6] (Table X, 2.000 PPM, control 2.65), 2.23; in assay [6] (Table X, 4.0 PPM, control 2.65), 2.12; in assay [6] (Table X, 8.0 PPM, control 2.65), 2.08; in assay [6] (Table XI, 1.0 PPM, control 2.19), 2.02; in assay [6] (Table XI, 2.0 PPM, control 2.19), 1.98. The “A:P” value in assay [6] (Table XI, 4.0 PPM, control 2.19) is 1.90; in assay [6] (Table XI, 8.0 PPM, control 2.19), 1.88. The “TOTAL VFA” value is recorded as 159.4 mM in assay [6] (Table X, 1.0 PPM, control 159.4); 160.2 mM in assay [6] (Table X, 2.000 PPM, control 159.4); 158.9 mM in assay [6] (Table X, 4.0 PPM, control 159.4); 158.3 mM in assay [6] (Table X, 8.0 PPM, control 159.4); 126.9 mM in assay [6] (Table XI, 1.0 PPM, control 125.3); 125.3 mM in assay [6] (Table XI, 2.0 PPM, control 125.3). The “TOTAL VFA” value was 121.3 mM in assay [6] (Table XI, 4.0 PPM, control 125.3) and 119.4 mM in assay [6] (Table XI, 8.0 PPM, control 125.3).

For `CN(C)C1C(=O)C(C(N)=O)=C(O)C2(O)C(=O)C3=C(O)c4c(O)ccc(Cl)c4C(C)(O)C3CC12` (stereo not shown) [CTC, reference compound], the zone of inhibition at 2500 µg/mL stood at 25 mm in assay [7]; 45 mm with Treponema hyodysenteriae [3] (ATCC27164, read-out: ZONE SIZE); 37 mm in the assay with Treponema hyodysenteriae [3] (ATCC31212, read-out: ZONE SIZE); 11 mm in assay [8]. In assay [1], this compound came in with an MIC of 0.5 µg/mL (≈ 1.04 µM).
